Results published in article PMC10291556 (Journal of Medicinal Chemistry, 2023).

Experiments:
[1] = test system: HeLa cells / Thp-1/PMA macrophages; assay: Phagocytosis of treated HeLa cells by Thp-1/PMA macrophages; format: cell-based, human; details: HeLa treated 24 h at 1× or 3× IC50,72h, co-incubated 2.5 h with Thp-1/PMA macrophages
Protocol: Figure 8 Hallmarks of ICD. (A) Extracellular ATP levels in HeLa cell supernatants. […] (B) Extracellular level of HMGB1. […] (C) Calreticulin exposure to the cell surface. […] The surface calreticulin exposure was determined in 4′,6-diamidino-2-phenylindole dihydrochloride (DAPI)-negative cell population. Relative fluorescence intensity was calculated as the median fluorescence of the population of treated cells/median fluorescence of untreated control cells. The data in panels A, B, and C are shown as a mean of 4–5 measurements ± SD. Statistical significance from untreated control was determined with the Student t-test (*p ≤ 0.05, **p ≤ 0.01, and ^#p ≤ 0.001). (D) Quantitative evaluation of phagocytosis of HeLa cells treated with the investigated compounds by human Thp-1/PMA macrophages (analyzed by flow cytometry). […] Error bars are the SEMs calculated from three independent experiments. The stars denote a significant difference from untreated control (*p ≤ 0.05, **p ≤ 0.01) as calculated by the […] Student t-test. […]
Human monocytic leukemia cells Thp-1 (obtained from American Type Culture Collection, ATCC) were differentiated into macrophages with phorbol 12-myristate 13-acetate (PMA, 100 nM) for 24 h. […] Phagocytosis was evaluated using flow cytometry (BD FACSVerse), and data were analyzed with FCS Express 7 (DeNovo software; Glendale, CA). […]

MRC-5 = assay: MTT assay in non-cancerous fibroblasts, 72 h; format: cell-based; details: non-cancerous human fibroblasts, 72 h incubation, mean ± SD
Protocol: Cells were treated with the tested compounds in a final volume of 200 μL/well. […] Calbiochem, Darmstadt, Germany) was added, and the cells were incubated for an additional 2–4 h. The medium was removed, and the insoluble formazan product was dissolved in 100 μL/well DMSO. […] The read values were converted to the percentage of control. […] All experiments were made in triplicate.

A2780 = assay: MTT antiproliferative assay, 72 h; format: cell-based, human; details: MTT, 72 h incubation, mean ± SD; read-out: IC50 A2780
Protocol: (§1) Cells were treated with the tested compounds in a final volume of 200 μL/well. […] Calbiochem, Darmstadt, Germany) was added, and the cells were incubated for an additional 2–4 h. The medium was removed, and the insoluble formazan product was dissolved in 100 μL/well DMSO. The absorbance was read at 570 nm (vs 620 nm) using an Absorbance Reader (SUNRISE TECAN SCHOELLER). The read values were converted to the percentage of control. […] All experiments were made in triplicate.

HCT-116 = assay: MTT antiproliferative assay, 72 h; format: cell-based, human; details: MTT, 72 h incubation, mean ± SD; read-out: IC50 HCT-116
Protocol: as §1

HeLa = assay: MTT antiproliferative assay, 72 h; format: cell-based, human; details: MTT, 72 h incubation, mean ± SD; read-out: IC50 HeLa
Protocol: as §1

MDA-MB-231 = assay: MTT antiproliferative assay, 72 h; format: cell-based, human; details: MTT, 72 h incubation, mean ± SD; read-out: IC50 MDA-MB-231
Protocol: as §1

A2780cisR = assay: MTT antiproliferative assay, 72 h; format: cell-based, human; details: MTT, 72 h incubation, mean ± SD; read-out: IC50 A2780cisR
Protocol: as §1

MCF-7 = assay: MTT antiproliferative assay, 72 h; format: cell-based, human; details: MTT, 72 h incubation, mean ± SD; read-out: IC50 MCF-7
Protocol: as §1

[2] = test system: DNA isolated from HeLa cells; assay: Pt associated with DNA isolated from treated HeLa cells; format: cell-based, human; details: 1 µM compound, 6 h, mean ± SD
Excerpt: page 16: Table S1: […] concentration of tested compounds for 6 ha. […] Figure S19: A. Representative histograms obtained by flow cytometric analysis of calreticulin exposure in HeLa cells treated with indicated compounds. B. An example of gating DAPI negative population. Only DAPI-negative cells were taken for the evaluation.

HeLa cells [3] = assay: Cellular accumulation of platinum (ICP-MS); format: cell-based, human; details: for cellular uptake 0.1 μM/24 h: 0.1 μM complex; for cellular uptake 1 μM/6 h: 1 μM complex; for cellular uptake 10 μM/6 h: 10 μM complex
Protocol: Briefly, 3 × 10^6 cells were seeded in 100 mm culture dishes and grown overnight. The cells were exposed to the tested complexes at indicated concentrations for indicated periods. […] The pellets were digested using the microwave acid (HCl) digestion system (CEM Mars). The platinum quantity taken up by the cells was determined by inductively coupled plasma mass spectrometry (ICP–MS). All experiments were performed in triplicate.

HeLa cells [4] = assay: Mitochondrial membrane potential (TMRE, flow cytometry); format: cell-based, human; details: 10× IC50, 1 h, vs untreated control
Protocol: Figure 4 Changes in the mitochondrial membrane potential Δψm in HeLa cells. The cells were treated with Pt compounds at the concentrations corresponding to 10× IC50 for 1 h and subsequently stained with TMRE. The fluorescence was measured by flow cytometry. Data represents mean ± SD from three independent experiments, *p < 0.01.
HeLa cells were seeded (6-well plates, 3 × 10^5 cells/well), grown overnight, and then treated with the tested compounds for 1 h. The medium was removed, and a fresh medium containing TMRE (Thermo Fisher Scientific) at a final concentration of […] in 500 μL was added. The cells were incubated for 30 min at 37 °C and then harvested using trypsin. TMRE fluorescence was measured with a fluorescence-activated cell sorting (FACS) Verse flow cytometer (Becton Dickinson), and the data were analyzed using the ModFit LT 4.1 (Verity Software House) software. The experiment was performed in triplicate.

COX-2 in HeLa cells = assay: Western blotting of COX-2; format: cell-based, human; details: 24 h, 1×, 3× IC50, Western blot
Protocol: (B) Quantitative evaluation of Western blotting data; the relative expression of COX-2 normalized to GAPDH. Data represents the mean ± SD of two experiments. The stars indicate the statistical significance of difference vs control determined with the Student t-test (*p < 0.05, **p < 0.01, ***p < 0.001).
HeLa cells were seeded in 60 mm dishes at a density of 3 × 10^5 cells/dish and cultured for 20 h. The cells were then treated with the tested compounds at concentrations indicated in the text. After 24 h of treatment, the cells were scraped, washed, and pelleted. […] 4–20% SDS-PAGE (sodium dodecyl sulfate-polyacrylamide gel electrophoresis) (Mini-PROTEAN TGX Precast Gel) was used to resolve the proteins. After transferring to the polyvinylidene fluoride membrane, the proteins were detected using appropriate antibodies: anti-GAPDH antibody (mouse, Sigma-Aldrich), Anti-COX-2 (rabbit, Abcam), Anti-α-, β-, or γ-tubulin (all rabbit, Abcam), Anti-β-actin (mouse, Abcam), Goat Anti-Rabbit IgG(HRP) (Abcam; HRP = horseradish peroxidase), and Goat Anti-Mouse IgG(HRP) (ThermoFisher Scientific). SignalFire ECL Reagent (A + B) was used as a substrate for HRP, and the luminescence was recorded with Amersham Imager 680. The densities in the images were assessed with the Aida image analysis software.

[5] = Partition coefficient, shake-flask method; format: physicochemical; details: octanol/water
Protocol: The “shake flask” method was used to measure the partition coefficients (P) of platinum compounds. The compounds were dissolved in octanol-saturated water (OSW) containing 200 mM NaCl. […] After careful separation of the layers with a fine-tip pipet, the Pt content in individual phases was determined by flameless atomic absorption spectrometry. The partition coefficients were calculated as the concentration ratio of the compound in the octanol layer to that in the aqueous layer, log P = log([Pt]WSO/[Pt]OSW).

HeLa cells [6] = assay: Wound healing assay; format: cell-based, human; details: 24 h, multiples of IC50,72h
Protocol: Figure 7 (A–E) Wound healing assay. The monolayer of HeLa cells was scratched with a 10 μL tip, and a starving medium containing the tested complexes was added. The shots were taken at times 0 and 24 h. (A) Control, non-treated cells; (B) cells treated with complex 3; (C) cells treated with complex 4. […] (E) Evaluation of wound healing assay. Bars represent gap size vs. Control (100%), following a 24 h incubation with the investigated compounds. Light gray bars: complex 3; dark gray bars: complex 4; black bar: complex 2. (F) Re-adhesion assay. […] Following trypsinization, the cells were resuspended in Dulbecco’s modified Eagle medium (DMEM), counted, left to reconstitute adhesive membrane proteins for 30 min, and re-seeded at the density of 3× 10^4 cells/100 μL/well. After 30 min of incubation at 37 °C, the re-adhesion activity was determined as described in the Experimental Section. Data represents mean ± SD, n = 8; *p < 0.05, **p < 0.01, ***p < 0.001.
HeLa cells were grown close to confluence in 6-well plates in a complete medium, and then the medium was replaced with a serum-free medium [supplemented with 0.1% bovine serum albumin (BSA)], and the cells were incubated for an additional 24 h. The HeLa monolayers were scratched with a 10 μL pipet tip, and the cells were washed twice with PBS to remove peeled cells and treated with tested compounds at indicated concentrations. The scratched areas were shot immediately after the complex addition and then after 24 h with a Canon EOS 1200D camera attached to an Olympus CKX41 inverted microscope with a 10×/0.25 phase contrast objective. Digital images were taken by the QuickPHOTO MICRO 3.1 program (PROMICRA, Prague, Czech Republic) and processed with the TScratch analysis software (ETH Zürich, Switzerland). The cell’s ability to migrate into the open area was expressed as a percentage of control.

COX in HeLa cells = assay: COX activity assay (kit) in treated cells; format: cell-based, human; details: 24 h, 1× IC50,72h, vs untreated control
Protocol: The results are expressed relative to the COX activity of untreated control.
HeLa cells were seeded in 6-well plates at a density of 10^5 cells/well and incubated overnight. The cells were treated with the tested compounds at concentrations corresponding to 1× IC50. Following a 24 h treatment, the cells were lyzed with radioimmunoprecipitation assay (RIPA) buffer supplemented with proteinase inhibitors on ice for 10 min. The extracts were cleared with centrifugation (12,000g/5 min), and protein content was determined using Bradford assay. COX activity was determined with a COX Activity Assay Kit (Abcam). 6 μg of protein was used in the reaction. The experiment was set up according to the manufacturer’s instructions. The fluorescence (Ex/Em 535/587 nm) was read in a kinetic mode, and the COX inhibition was expressed as a percentage of the activity of the untreated control.

HeLa cells [7] = assay: Calreticulin exposure (flow cytometry); format: cell-based, human; details: 3× IC50, 16–18 h, DAPI-negative cells
Protocol: Following the treatment, the cells were harvested (trypsin), washed with FACS buffer (PBS, BSA 1%, and FBS 2%), and incubated with Alexa Fluor 488 Anti-Calreticulin antibody for 40 min at 4 °C. The buffer was removed (CFG, 300 g, 3 min) and replaced with FACS buffer containing DAPI (1 μg mL^–1, 20 min), and the cells were analyzed with flow cytometry (BD FACS Verse) and FCS Express 6 (DeNovo Software, Glendale, CA). Calreticulin fluorescence histograms were analyzed in the DAPI-negative (intact membrane) cell population.

HeLa cells [8] = assay: HMGB1 release (ELISA); format: cell-based, human; details: 1×, 2×, 3× IC50, 20 h
Protocol: (B) Extracellular level of HMGB1. […] The data in panels A, B, and C are shown as a mean of 4–5 measurements ± SD. Statistical significance from untreated control was determined with the Student t-test (*p ≤ 0.05, **p ≤ 0.01, and ^#p ≤ 0.001).
HeLa cells were seeded in 24-well plates at a density of 10^4 cells/well and grown overnight. The medium was removed, and a fresh medium (DMEM, 1% BSA, no FBS) containing indicated concentrations of tested complexes was added (300 μL). Following a 20 h treatment, medium samples were withdrawn, and the HMGB1 content was determined using an HMGB1 ELISA Kit (IBL international) following the instructions for use. Cell counts in corresponding wells were determined using Automated Cell Counter (Bio-Rad). HMGB1 concentrations were normalized to cell counts and to the value of untreated control. The experiment was performed twice with duplicate readings.

HeLa cells [9] = assay: ATP secretion; format: cell-based, human; details: 1× and 3× IC50, 24 h
Protocol: HeLa cells were seeded in 24-well plates at a density of 10^4 cells/well, grown overnight, and then treated with the tested complexes for 24 h. Aliquots of culture medium samples were withdrawn, centrifugated (500g, 3 min), and processed with ATP Bioluminescence Assay Kit CLS II, Roche. Briefly, 50 μL of cell-free medium samples were added to a 96-well flat white plate, and an equal volume of luciferase reagent was added. The luminescence was measured immediately on a plate reader (SPARK, Tecan). The blank (no ATP) was subtracted from the raw data. ATP concentrations were obtained from the standard curve and normalized to cell counts and control. The data are shown as MEAN of 4–5 independent measurements.

SMILES | increase of tumor-cell phagocytosis [1] | IC50 (MRC-5) | IC50 (A2780) | IC50 (HCT-116) | IC50 (HeLa) | IC50 (MDA-MB-231) | IC50 (A2780cisR) | IC50 (MCF-7) | amount of Pt associated with DNA [2] | cellular uptake 0.1 μM/24 h (HeLa cells [3]) | cellular uptake 1 μM/6 h (HeLa cells [3]) | cellular uptake 10 μM/6 h (HeLa cells [3]) | mitochondrial membrane potential Δψm (TMRE fluorescence) (HeLa cells [4]) | intracellular level of COX-2 protein (COX-2 in HeLa cells) | log P [5] | migration activity (wound closing) (HeLa cells [6]) | inhibition of COX activity (COX in HeLa cells) | externalization of calreticulin (HeLa cells [7]) | HMGB1 secretion (HeLa cells [8]) | ATP secretion (HeLa cells [9])
COc1cccc2c1C(=O)c1c(O)c3c(c(O)c1C2=O)C[C@@](O)(C(=O)CO)C[C@@H]3O[C@H]1C[C@H](N)[C@H](O)[C@H](C)O1 [doxorubicin, reference compound] | slightly less pronounced levels of phagocytosis |  |  |  |  |  |  |  |  |  |  |  |  |  |  |  |  |  |  | 
N.N.[Cl][Pt][Cl] [cisplatin, reference compound] |  | 7.3 ± 0.9 µM | 3.5 ± 0.6 µM | 8 ± 1 µM | 15 ± 3 µM | 22 ± 2 µM | 20 ± 2 µM | 14 ± 3 µM | 2.8 ± 0.2 pg Pt/µg DNA | 0.3 ± 0.1 ng Pt/10^6 cells | 2.3 ± 0.3 ng Pt/10^6 cells | 10 ± 3 ng Pt/10^6 cells |  |  |  |  |  |  |  | 
Cc1c(C)c2c3c4c1=CC=C[N]4[Pt]([Cl])([Cl])[N]3C=CC=2.N[C@H]1CCCC[C@@H]1N [complex 2, Pt^IV56MeSSCl2] |  | 2.1 ± 0.4 µM | 0.39 ± 0.01 µM | 1.6 ± 0.4 µM | 2.9 ± 0.7 µM | 1.5 ± 0.4 µM | 0.4 ± 0.08 µM | 5.9 ± 0.5 µM | 1.9 ± 0.1 pg Pt/µg DNA | 2.2 ± 0.2 ng Pt/10^6 cells | 6.2 ± 0.3 ng Pt/10^6 cells | 47 ± 2 ng Pt/10^6 cells | insignificant impact on the Δψm | markedly less effective | –2.1 ± 0.2 | less efficient in inhibting artificial wound closing |  |  |  | 
NCCNC(=O)Cc1ccccc1Nc1c(Cl)cccc1Cl [enDCF, diclofenac amide] |  | 58 ± 6 µM |  | 27 ± 4 µM | 30 ± 2 µM | 32 ± 3 µM |  | 37 ± 4 µM |  |  |  |  | The same effect |  |  |  | Inhibition of COX activity was also observed | effective as well | effective as well | effective as well
